Source: ChEMBL document CHEMBL3120141, “Discovery of (1R,6S)-5-[4-(1-cyclobutyl-piperidin-4-yloxy)-phenyl]-3,4-diaza-bicyclo[4.1.0]hept-4-en-2-one (R,S-4a): histamine H(3) receptor inverse agonist demonstrating potent cognitive enhancing and wake promoting activity” (Bioorg Med Chem Lett, 2014)

Columns and labels:
Homo sapiens [1] = organism: Homo sapiens; experiment: Selectivity ratio for human histamine H3 receptor over human histamine H2 receptor
Histamine H3 receptor [2] = target: Histamine H3 receptor (Rattus norvegicus, UniProt Q9QYN8); experiment: Displacement of [3H]NAMH from rat histamine H3 receptor transfected in CHO cells; assay type: cell-based
Sequence of Histamine H3 receptor (Rattus norvegicus, UniProt Q9QYN8) (Q9QYN8 whole entry): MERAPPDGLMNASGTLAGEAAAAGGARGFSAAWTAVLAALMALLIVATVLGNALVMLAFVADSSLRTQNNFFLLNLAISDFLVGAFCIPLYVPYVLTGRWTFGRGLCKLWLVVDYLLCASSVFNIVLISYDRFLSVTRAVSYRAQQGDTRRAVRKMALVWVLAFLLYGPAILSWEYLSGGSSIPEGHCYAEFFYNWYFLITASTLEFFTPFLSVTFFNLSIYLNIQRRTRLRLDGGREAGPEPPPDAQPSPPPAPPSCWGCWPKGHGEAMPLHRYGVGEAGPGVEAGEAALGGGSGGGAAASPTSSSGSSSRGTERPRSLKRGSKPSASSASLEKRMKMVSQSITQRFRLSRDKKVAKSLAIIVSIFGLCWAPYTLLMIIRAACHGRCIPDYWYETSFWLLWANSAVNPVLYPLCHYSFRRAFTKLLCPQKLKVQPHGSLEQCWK

Homo sapiens [3] = organism: Homo sapiens; experiment: Selectivity ratio for human histamine H3 receptor over human histamine H1 receptor
Histamine H3 receptor [4] = target: Histamine H3 receptor (Homo sapiens, UniProt Q9Y5N1); experiment: Displacement of [3H]NAMH from human histamine H3 receptor transfected in CHO cells; assay type: cell-based
Sequence of Histamine H3 receptor (Homo sapiens, UniProt Q9Y5N1) (Q9Y5N1 whole entry): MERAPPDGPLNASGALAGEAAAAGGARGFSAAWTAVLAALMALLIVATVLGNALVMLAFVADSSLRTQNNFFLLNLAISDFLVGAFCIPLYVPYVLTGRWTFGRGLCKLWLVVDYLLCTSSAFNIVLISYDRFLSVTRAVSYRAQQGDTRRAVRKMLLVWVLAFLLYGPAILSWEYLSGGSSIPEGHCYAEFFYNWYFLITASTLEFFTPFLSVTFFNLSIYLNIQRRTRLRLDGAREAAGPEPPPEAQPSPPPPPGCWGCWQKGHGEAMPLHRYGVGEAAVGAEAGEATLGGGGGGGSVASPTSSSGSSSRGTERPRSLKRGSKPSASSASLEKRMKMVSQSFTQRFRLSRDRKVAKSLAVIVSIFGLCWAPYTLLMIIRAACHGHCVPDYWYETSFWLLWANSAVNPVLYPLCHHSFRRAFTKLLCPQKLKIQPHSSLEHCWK

Homo sapiens [5] = organism: Homo sapiens; experiment: Selectivity ratio for human histamine H3 receptor over human histamine H4 receptor
[6] = Metabolic stability in mouse liver microsomes; assay type: ADME, Microsome
Liver microsome [7] = experiment: Metabolic stability in human liver microsomes; assay type: ADME
[8] = Oral bioavailability in rat; assay type: ADME, organism-based; conditions: in vivo
Liver microsome [9] = experiment: Metabolic stability in rat liver microsomes; assay type: ADME
Liver microsome [10] = experiment: Metabolic stability in dog liver microsomes; assay type: ADME, Canis lupus familiaris

SMILES	Selectivity ratio (Homo sapiens [1])	Ki (Histamine H3 receptor [2])	Selectivity ratio (Homo sapiens [3])	Ki (Histamine H3 receptor [4])	Selectivity ratio (Homo sapiens [5])	Stability [6]	Stability (Liver microsome [7])	bioavailability [8]	Stability (Liver microsome [9])	Stability (Liver microsome [10])
CCN1N=C(c2ccc(OC3CCN(C4CCC4)CC3)cc2)C2CC2C1=O (racemic)	> 1000	8 nM	> 1000	4.5 nM	> 1000	–	–	–	–	–
CC(C)N1CCC(Oc2ccc(C3=NN(C)C(=O)C4CC34)cc2)CC1 (racemic)	> 1000	17 nM	> 1000	4 nM	> 1000	–	–	–	–	–
CN1N=C(c2ccc(OC3CCN(C4CCC4)CC3)cc2)C2CC2C1=O (racemic)	> 1000	6.9 nM	> 1000	4 nM	> 1000	Stable	Stable	6%	Stable	Stable
